The source of these data is patent publication US8383139B2 (Bayer CropScience AG, priority 2008, dated 2013).

For data set [1], the system named is Sphaerotheca fuliginea. Put plainly: Sphaerotheca test (cucumber)/protective. In kind it is in vivo. As to conditions: Podosphaera fuliginea, 168 h, 500 ppm active substance, protective, evaluation 7 days after inoculation, read-out: degree of effectiveness. The method, then: • Solvents: 49 parts by weight of N,N-dimethylformamide • Emulsifier: 1 part by weight of alkylaryl polyglycol ether (polyoxyethylene (16) tristearylphenyl ether) To prepare a suitable active substance composition, 1 part by weight of active substance is mixed with the given amounts of solvents and emulsifier and the concentrate is diluted to the desired concentration using water. For the testing of protective effectiveness, young cucumber plants are sprayed with the active substance composition in the application rate given. One day after the treatment, the plants are inoculated with a suspension of spores of Sphaerotheca fuliginea. Subsequently, the plants are placed in a greenhouse at 70% relative humidity and at a temperature of 23° C. Evaluation is carried out 7 days after the inoculation. In this connection, 0% means a degree of effectiveness corresponding to that of the control, while a degree of effectiveness of 100% means that no infestation is observed.

The subject of data set [2] is Puccinia triticina. Put plainly: Puccinia triticina test (wheat)/protective. In kind it is in vivo. As to conditions: 192 h, 500 ppm active substance, protective, evaluation 8 days after inoculation, read-out: degree of effectiveness. On the procedure: • Solvent: 50 parts by weight of N,N-dimethylacetamide • Emulsifier: 1 part by weight of alkylaryl polyglycol ether (polyoxyethylene (16) tristearylphenyl ether) To prepare a suitable active substance composition, 1 part by weight of active substance is mixed with the given amounts of solvent and emulsifier and the concentrate is diluted to the desired concentration using water. For the testing of protective effectiveness, young plants are sprayed with the active substance composition in the application rate given. After the spray coating has been dried on, the plants are sprayed with spores with a suspension of spores of Puccinia triticina. The plants remain in an incubation chamber at 20° C. and 100% relative humidity for 48 hours. The plants are placed in a greenhouse at a temperature of approximately 20° C. and a relative humidity of approximately 80%. Evaluation is carried out 8 days after the inoculation. In this connection, 0% means a degree of effectiveness corresponding to that of the control, while a degree of effectiveness of 100% means that no infestation is observed.

A short description of data set [3]: log P by HPLC on reversed-phase columns (C 18), EEC Directive 79/831 Annex V.A8. Format: physicochemical. The conditions noted are these: for chromatographic logP: reversed-phase C18 HPLC column, pH 2.3, [a] HPLC, read-out: log p.
For data set [4], the system named is Septoria tritici. Put plainly: Septoria tritici test (wheat)/protective. Format: in vivo. The conditions noted are these: Zymoseptoria tritici, 504 h, 500 ppm active substance, protective, evaluation 21 days after inoculation, read-out: degree of effectiveness. On the procedure: • Solvent: 50 parts by weight of N,N-dimethylacetamide • Emulsifier: 1 part by weight of alkylaryl polyglycol ether (polyoxyethylene (16) tristearylphenyl ether) To prepare a suitable active substance composition, 1 part by weight of active substance is mixed with the given amounts of solvent and emulsifier and the concentrate is diluted to the desired concentration using water. For the testing of protective effectiveness, young plants are sprayed with the active substance composition at the application rate given. After the spray coating has dried on, the plants are sprayed with a suspension of spores of Septoria tritici. The plants remain in an incubation chamber at 20° C. and 100% relative humidity for 48 hours. The plants are afterwards placed under a transparent hood at 15° C. and 100% relative humidity for a further 60 hours. The plants are placed in a greenhouse at a temperature of approximately 15° C. and a relative humidity of 80%. Evaluation is carried out 21 days after the inoculation. In this connection, 0% means a degree of effectiveness corresponding to that of the control, while a degree of effectiveness of 100% means that no infestation is observed.

Data set [5] deals with Uromyces appendiculatus. Put plainly: Uromyces test (beans)/protective. As to conditions: 240 h, 100 ppm active substance, protective, evaluation 10 days after inoculation, read-out: degree of effectiveness. In kind it is in vivo. On the procedure:
• Solvents: 24.5 parts by weight of acetone • 24.5 parts by weight of dimethylacetamide • Emulsifier: 1 part by weight of alkylaryl polyglycol ether (polyoxyethylene (16) tristearylphenyl ether)
To prepare a suitable active substance composition, 1 part by weight of active substance is mixed with the given amounts of solvents and emulsifier and the concentrate is diluted to the desired concentration using water.
For the testing of protective effectiveness, young plants are sprayed with the active substance composition in the application rate given. After the spray coating has been dried on, the plants are inoculated with an aqueous suspension of the spores of the bean rust pathogen Uromyces appendiculatus and then remain in an incubation chamber at approximately 20° C. and 100% relative humidity for 1 day.
The plants are then placed in a greenhouse at approximately 21° C. and a relative humidity of approximately 90%.
Evaluation is carried out 10 days after the inoculation. In this connection, 0% means a degree of effectiveness corresponding to that of the control, while a degree of effectiveness of 100% means that no infestation is observed.

Where [6] appears, read: acid region pH 2.3, 0.1% aqueous phosphoric acid and acetonitrile.
Where [7] appears, read: [a] HPLC, acid region pH 2.3, 0.1% aqueous phosphoric acid and acetonitrile.
The mark [8] stands for this setting: [b] LC-MS, acid region pH 2.7, 0.1% aqueous formic acid and acetonitrile.

Structures are written as SMILES.

As to `Cc1cc(Oc2nc(C(C)(C)c3ccc(Cl)cc3)ns2)c(Cl)cc1N=CN(C)C(C)C` [Example 30, N′-[5-chloro-4-({3-[2-(4-chlorophenyl)propan-2-yl]-1,2,4-thiadiazol-5-yl}oxy)-2-methylphenyl]-N-methyl-N-(propan-2-yl)imidoformamide], the pest or weed control at 500 ppm in data set [1] and in data set [2] was at least 70% in each case. For the same compound, in data set [3] (setting [6]), the chromatographic logP was found to be 2.86.
For `Cc1cc(Oc2nc(C3(c4ccc(Cl)cc4)CC3)ns2)c(Cl)cc1N=CN(C)C(C)C` [Example 41, N′-[5-chloro-4-({3-[1-(4-chlorophenyl)cyclopropyl]-1,2,4-thiadiazol-5-yl}oxy)-2-methylphenyl]-N-methyl-N-(propan-2-yl)imidoformamide], the pest or weed control at 500 ppm in data set [1], in data set [2] and in data set [4] was at least 70% throughout. For the same compound, the chromatographic logP in data set [3] (setting [6]) amounted to 2.71.
Turning to `Cc1cc(Oc2nc(Cc3ccc(Br)cc3)ns2)c(C)cc1N=CN1CCCCC1` [Example 33, 4-{[3-(4-bromobenzyl)-1,2,4-thiadiazol-5-yl]oxy}-2,5-dimethyl-N-(piperidin-1-ylmethylidene)aniline], the pest or weed control at 500 ppm in data set [1], in data set [2] and in data set [4] was at least 70% each time. The chromatographic logP in data set [3] (setting [6]) came out at 2.17.
`CCN(C)C=Nc1cc(C)c(Oc2nc(Cc3cccc(OC)c3)ns2)cc1C` [Example 16, N-ethyl-N′-(4-{[3-(3-methoxybenzyl)-1,2,4-thiadiazol-5-yl]oxy}-2,5-dimethylphenyl)-N-methylimidoformamide]: the pest or weed control at 500 ppm in data set [1], in data set [2] and in data set [4] was at least 70% throughout. The chromatographic logP in data set [3] (setting [6]) was determined as 1.7.
Consider `Cc1cc(Oc2nc(C(C)c3ccc(Cl)cc3)ns2)c(C)cc1N=CN1CCCCC1` (centres unmarked) [Example 18, 4-({3-[1-(4-chlorophenyl)ethyl]-1,2,4-thiadiazol-5-yl}oxy)-2,5-dimethyl-N-(piperidin-1-ylmethylidene)aniline], for which the pest or weed control at 500 ppm in data set [1] and in data set [2] was at least 70% each time. Also, the pest or weed control at 100 ppm in data set [5] was at least 70%. For the same compound, the chromatographic logP in data set [3] (setting [6]) came to 2.41.
`Cc1cc(Oc2nc(Cc3ccc(Cl)c(Cl)c3)ns2)c(C)cc1N=CN1CCCCC1` [Example 48, 4-{[3-(3,4-dichlorobenzyl)-1,2,4-thiadiazol-5-yl]oxy}-2,5-dimethyl-N-(piperidin-1-ylmethylidene)aniline]: in data set [1], the pest or weed control at 500 ppm is at least 70%. For the same compound, in data set [5], the pest or weed control at 100 ppm was at least 70%.
Consider `CCN(C)C=Nc1cc(C)c(Oc2nc(Cc3ccc(Oc4ccccc4)cc3)ns2)cc1C` [Example 80], for which, in data set [3] (setting [7]), the log p was 2.72^[a].
In the case of `Cc1cc(Oc2nc(Cc3ccc(OC(F)(F)F)cc3)ns2)c(C)cc1N=CN(C)C1CC1` [Example 141], in data set [3] (setting [8]), the log p was 2.2^[b].
The same measure, in the same setting: the result for `Cc1cc(Oc2nc(Cc3ccc(OC(F)(F)F)cc3)ns2)c(C)cc1N=CN(C)CC(F)F` [Example 142] reads 2.46^[b].
On to `Cc1cccc(Cc2nsc(Oc3cc(C)c(N=CN4CCCCC4)cc3C)n2)c1` [Example 114], for which the log p in data set [3] (setting [7]) is 2.44^[a].
As to `CCOCC(C1CC1)N(C)C=Nc1cc(C)c(Oc2nc(Cc3ccc(C)cc3)ns2)cc1C` (centres unmarked) [Example 140], the log p in data set [3] (setting [8]) was 2.4^[b].
Take `Cc1ccc(Cc2nsc(Oc3cc(C)c(N=CN4CCCCC4)cc3C)n2)c([N+](=O)[O-])c1` [Example 103]: the log p in data set [3] (setting [7]) was 2.44^[a].
On the same count and under the same terms, the result for `CCN(C)C=Nc1cc(C)c(Oc2nc(Cc3ccccc3Br)ns2)cc1C` [Example 100] reads 2.32^[a]; that for `Cc1cc(Oc2nc(Cc3cc(F)ccc3F)ns2)c(C)cc1N=CN1CCCCC1` [Example 84], 2.4^[a].
Still for that read-out and setting: the value for `COc1cccc(Cc2nsc(Oc3cc(C)c(N=CN4CCCCC4)cc3C)n2)c1` [Example 87] was 2.17^[a]; that for `Cc1cc(Oc2nc(Cc3cccc(Br)c3)ns2)c(C)cc1N=CN1CCCCC1` [Example 59] was 2.23^[a].
As for `Cc1cc(Oc2nc(Cc3ccc(F)cc3)ns2)c(C)cc1N=CN(C)C1CC1` [Example 127], in data set [3] (setting [8]), the log p is 1.83^[b].
On to `CCN(C)C=Nc1cc(C)c(Oc2nc(Cc3cccc(Cl)c3Cl)ns2)cc1C` [Example 96], for which the log p in data set [3] (setting [7]) is 2.21^[a].
Same read-out and setting: the value for `CCN(C)C=Nc1cc(C)c(Oc2nc(Cc3ccc4ccccc4c3)ns2)cc1C` [Example 97] was 2.22^[a].
In the case of `COc1ccc(Cc2nsc(Oc3cc(C)c(N=CN(C)CC(F)F)cc3C)n2)cc1` [Example 136], in data set [3] (setting [8]), the log p is 1.87^[b].
`Cc1cc(Oc2nc(Cc3ccccc3Cl)ns2)c(C)cc1N=CN1CCCCC1` [Example 62]: the log p in data set [3] (setting [7]) was 2.43^[a].
Regarding `Cc1cc(Oc2nc(Cc3ccc(C(F)(F)F)cc3)ns2)c(C)cc1N=CN(C)C1CC1` [Example 130], the log p in data set [3] (setting [8]) is 2.28^[b].
`Cc1cc(Oc2nc(Cc3ccc4ccccc4c3)ns2)c(C)cc1N=CN1CCCCC1` [Example 107]: the log p in data set [3] (setting [7]) is 2.37^[a].
Same read-out and setting: the value for `Cc1cc(Oc2nc(Cc3c(F)cc(F)cc3F)ns2)c(C)cc1N=CN1CCCCC1` [Example 117] was 2.33^[a].
On to `CCOc1ccc(Cc2nsc(Oc3cc(C)c(N=CN(C)CC)cc3C)n2)cc1` [Example 89], for which, in data set [3] (setting [7]), the log p was 2.06^[a].
On to `CCN(C)C=Nc1cc(C)c(Oc2nc(Cc3ccc4ccccc4c3)ns2)cc1C` [Example 112], for which, in data set [3] (setting [7]), the log p is 2.24^[a].
With `CCOCC(C1CC1)N(C)C=Nc1cc(C)c(Oc2nc(Cc3ccc(F)cc3)ns2)cc1C` (centres unmarked) [Example 132], in data set [3] (setting [8]), the log p was 2.26^[b].
Regarding `COc1ccccc1Cc1nsc(Oc2cc(C)c(N=CN3CCCCC3)cc2C)n1` [Example 50, 4-{[3-(2-methoxybenzyl)-1,2,4-thiadiazol-5-yl]oxy}-2,5-dimethyl-N-(piperidin-1-ylmethylidene)aniline], the pest or weed control at 500 ppm in data set [1] and in data set [4] was at least 70% in each case. The pest or weed control at 100 ppm in data set [5] was at least 70%. Moreover, the chromatographic logP in data set [3] (setting [6]) was 2.05.
Turning to `Cc1cc(Oc2nc(C(C)c3ccc(Cl)cc3)ns2)c(Cl)cc1N=CN1CCCCC1` (centres unmarked) [Example 21, 5-chloro-4-({3-[1-(4-chlorophenyl)ethyl]-1,2,4-thiadiazol-5-yl}oxy)-2-methyl-N-(piperidin-1-ylmethylidene)aniline], the chromatographic logP in data set [3] (setting [6]) turned out to be 2.67.
In the case of `CCN(C)C=Nc1cc(C)c(Oc2nc(Cc3c(F)cccc3Cl)ns2)cc1C` [Example 74], the log p in data set [3] (setting [7]) is 2.33^[a].
With `CCN(C)C=Nc1cc(C)c(Oc2nc(Cc3ccc([N+](=O)[O-])cc3)ns2)cc1C` [Example 64], the log p in data set [3] (setting [7]) was 2.11^[a].
Same read-out and setting: the value for `Cc1cc(Oc2nc(Cc3ccc(SC(F)(F)F)cc3)ns2)c(C)cc1N=CN1CCCCC1` [Example 88] was 2.67^[a].
